# Measured values: patent US6410527B1, “Method of treating obsessive compulsive disorders, somatoform disorders, dissociative disorders, eating disorders, impulse control disorders, and autism” (Schering Corporation, priority 1998, dated 2002)
# Structures can show the parent of a compound that is named as a salt.
# Legend:
# [1] = tested on: patient diagnosed with obsessive-compulsive disorder; assay: Administration of SCH 39166 capsules to a patient with obsessive-compulsive disorder; assay type: in vivo, human; details: capsules of Example 1 containing 5.0 mg SCH 39166, once a day, six months
# [2] = tested on: patient diagnosed as having autism; assay: Administration of SCH 39166 capsules to a patient with autism; assay type: in vivo, human; details: capsules of Example 1 containing 25.0 mg SCH 39166, once a day, six months
structure (smiles),measurement,setting,value
"CN1CCc2cc(Cl)c(O)cc2[C@H]2c3ccccc3CC[C@@H]21 [SCH 39166, (−)-trans-6,7,7a, 8,9,13b-hexahydro-3-chloro-2-hydroxy-N-methyl-5-H-benzo[d]naphtho{2,1-b}azepine HCl]",observable symptoms of the disorder,[1],reducing or eliminating the observable symptoms of the disorder
same,observable symptoms of the disorder,[2],reducing or eliminating the observable symptoms of the disorder
